Measurements reported in the kinase profiling compilation of Christmann-Franck et al. (2016).

How the values were obtained:
Experiment in all cases: radiometric filter-binding kinase assay, Kinase HotSpot
Details in all cases: compound 0.5 µM; ATP 10 µM
[1] = target: CAMK2B (human) (UniProt Q13554)
[2] = target: BRSK2 (human) (UniProt Q8IWQ3)
[3] = target: MAPKAPK5 (human) (UniProt Q8IW41)
[4] = target: NTRK3 (human) (UniProt Q16288)
[5] = target: MAPK1 (human) (UniProt P28482)
[6] = target: PHKG1 (human) (UniProt Q16816)
[7] = target: BLK (human) (UniProt P51451)
[8] = target: DCLK2 (human) (UniProt Q8N568)
[9] = target: IKBKB (human) (UniProt O14920)
[10] = target: TAOK1 (human) (UniProt Q7L7X3)
[11] = target: WEE1 (human) (UniProt P30291)
[12] = target: DDR2 (human) (UniProt Q16832)
[13] = target: FGFR1 (human) (UniProt P11362)
[14] = target: MKNK2 (human) (UniProt Q9HBH9)
[15] = target: CSNK2A1 (human) (UniProt P68400)
[16] = target: GRK4 (human) (UniProt P32298)
[17] = target: CDK3 CCNE1 (human) (UniProt Q00526+P24864)
[18] = target: STK24 (human) (UniProt Q9Y6E0)
[19] = target: AURKA (human) (UniProt O14965)
[20] = target: YES1 (human) (UniProt P07947)
[21] = target: PRKCH (human) (UniProt P24723)
[22] = target: STK17A (human) (UniProt Q9UEE5)
[23] = target: TAOK2 (human) (UniProt Q9UL54)
[24] = target: ABL1 (human) (UniProt P00519)
[25] = target: MLTK (human) (UniProt Q9NYL2)
[26] = target: TXK (human) (UniProt P42681)
[27] = target: RPS6KA6 KD1 KD2 (human) (UniProt Q9UK32)
[28] = target: TYRO3 (human) (UniProt Q06418)
[29] = target: RPS6KB2 (human) (UniProt Q9UBS0)
[30] = target: RPS6KA4 KD2 (human) (UniProt O75676)
[31] = target: LTK (human) (UniProt P29376)
[32] = target: RET (human) (UniProt P07949)
[33] = target: ULK2 (human) (UniProt Q8IYT8)
[34] = target: CDK4 CCND1 (human) (UniProt P24385+P11802)
[35] = target: PRKCD (human) (UniProt Q05655)
[36] = target: EPHB3 (human) (UniProt P54753)
[37] = target: CLK3 (human) (UniProt P49761)
[38] = target: NEK4 (human) (UniProt P51957)
[39] = target: MAPKAPK2 (human) (UniProt P49137)
[40] = target: RPS6KA1 KD1 KD2 (human) (UniProt Q15418)
[41] = target: MAPK14 (human) (UniProt Q16539)
[42] = target: RPS6KA2 KD1 KD2 (human) (UniProt Q15349)

Chain of MAPK14 (human) (Q16539 whole entry, looked up): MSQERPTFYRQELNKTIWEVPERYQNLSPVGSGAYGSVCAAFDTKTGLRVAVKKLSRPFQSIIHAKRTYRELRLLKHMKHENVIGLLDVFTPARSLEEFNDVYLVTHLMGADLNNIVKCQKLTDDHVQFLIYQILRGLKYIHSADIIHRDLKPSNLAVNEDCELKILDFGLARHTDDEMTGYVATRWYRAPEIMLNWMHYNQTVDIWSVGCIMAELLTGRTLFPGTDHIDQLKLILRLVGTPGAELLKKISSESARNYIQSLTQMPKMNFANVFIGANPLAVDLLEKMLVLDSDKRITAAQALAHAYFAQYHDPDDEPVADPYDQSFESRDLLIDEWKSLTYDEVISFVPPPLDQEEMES
Chain of PRKCD (human) (Q05655 whole entry, looked up): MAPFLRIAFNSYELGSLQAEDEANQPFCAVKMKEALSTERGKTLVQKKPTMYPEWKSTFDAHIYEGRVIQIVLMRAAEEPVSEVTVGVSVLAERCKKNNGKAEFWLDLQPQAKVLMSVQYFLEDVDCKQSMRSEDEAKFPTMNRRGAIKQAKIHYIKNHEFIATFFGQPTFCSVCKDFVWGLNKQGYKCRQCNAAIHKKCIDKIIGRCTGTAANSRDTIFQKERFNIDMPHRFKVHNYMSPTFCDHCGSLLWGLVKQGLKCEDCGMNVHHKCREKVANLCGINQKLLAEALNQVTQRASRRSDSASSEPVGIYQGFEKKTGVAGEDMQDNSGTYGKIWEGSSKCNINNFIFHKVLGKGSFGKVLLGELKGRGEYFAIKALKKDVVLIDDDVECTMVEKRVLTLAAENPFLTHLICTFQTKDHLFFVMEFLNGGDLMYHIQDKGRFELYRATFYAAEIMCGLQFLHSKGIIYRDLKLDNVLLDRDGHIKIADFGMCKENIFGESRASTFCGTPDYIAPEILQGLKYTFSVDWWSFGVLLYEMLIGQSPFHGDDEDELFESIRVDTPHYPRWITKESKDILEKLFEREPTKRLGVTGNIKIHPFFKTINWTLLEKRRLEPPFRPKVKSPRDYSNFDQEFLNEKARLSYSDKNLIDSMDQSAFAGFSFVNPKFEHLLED
Chain of MKNK2 (human) (Q9HBH9 whole entry, looked up): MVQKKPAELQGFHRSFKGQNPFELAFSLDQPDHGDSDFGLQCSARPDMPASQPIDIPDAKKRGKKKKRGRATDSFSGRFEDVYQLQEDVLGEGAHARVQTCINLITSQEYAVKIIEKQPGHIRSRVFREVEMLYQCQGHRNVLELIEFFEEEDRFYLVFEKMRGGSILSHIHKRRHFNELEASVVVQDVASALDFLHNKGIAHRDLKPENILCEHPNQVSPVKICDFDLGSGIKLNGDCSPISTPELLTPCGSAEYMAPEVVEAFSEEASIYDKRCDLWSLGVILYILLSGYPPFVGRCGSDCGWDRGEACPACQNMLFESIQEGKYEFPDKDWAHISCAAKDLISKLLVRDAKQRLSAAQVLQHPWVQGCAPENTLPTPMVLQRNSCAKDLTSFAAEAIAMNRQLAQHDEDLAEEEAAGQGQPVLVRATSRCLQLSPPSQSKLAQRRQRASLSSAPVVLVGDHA
Chain of CDK4 CCND1 (human) (P11802 whole entry, looked up): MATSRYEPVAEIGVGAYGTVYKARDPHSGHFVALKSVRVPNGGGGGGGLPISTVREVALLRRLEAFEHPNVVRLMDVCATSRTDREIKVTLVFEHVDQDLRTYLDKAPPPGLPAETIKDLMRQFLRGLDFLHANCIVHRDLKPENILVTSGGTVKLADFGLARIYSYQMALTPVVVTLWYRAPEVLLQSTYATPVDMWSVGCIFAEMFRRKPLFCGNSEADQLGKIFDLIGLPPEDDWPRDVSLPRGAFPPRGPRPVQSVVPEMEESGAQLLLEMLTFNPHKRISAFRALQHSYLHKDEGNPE
Chain of CDK4 CCND1 (human) (P24385 whole entry, looked up): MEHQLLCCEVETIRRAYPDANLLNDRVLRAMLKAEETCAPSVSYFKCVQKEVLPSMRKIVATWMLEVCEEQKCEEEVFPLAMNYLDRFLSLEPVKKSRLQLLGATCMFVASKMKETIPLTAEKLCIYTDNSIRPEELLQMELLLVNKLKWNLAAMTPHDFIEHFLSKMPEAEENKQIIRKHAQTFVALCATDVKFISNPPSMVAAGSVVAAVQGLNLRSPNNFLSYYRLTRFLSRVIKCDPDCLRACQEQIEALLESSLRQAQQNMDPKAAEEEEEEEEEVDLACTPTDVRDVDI
Chain of TXK (human) (P42681 whole entry, looked up): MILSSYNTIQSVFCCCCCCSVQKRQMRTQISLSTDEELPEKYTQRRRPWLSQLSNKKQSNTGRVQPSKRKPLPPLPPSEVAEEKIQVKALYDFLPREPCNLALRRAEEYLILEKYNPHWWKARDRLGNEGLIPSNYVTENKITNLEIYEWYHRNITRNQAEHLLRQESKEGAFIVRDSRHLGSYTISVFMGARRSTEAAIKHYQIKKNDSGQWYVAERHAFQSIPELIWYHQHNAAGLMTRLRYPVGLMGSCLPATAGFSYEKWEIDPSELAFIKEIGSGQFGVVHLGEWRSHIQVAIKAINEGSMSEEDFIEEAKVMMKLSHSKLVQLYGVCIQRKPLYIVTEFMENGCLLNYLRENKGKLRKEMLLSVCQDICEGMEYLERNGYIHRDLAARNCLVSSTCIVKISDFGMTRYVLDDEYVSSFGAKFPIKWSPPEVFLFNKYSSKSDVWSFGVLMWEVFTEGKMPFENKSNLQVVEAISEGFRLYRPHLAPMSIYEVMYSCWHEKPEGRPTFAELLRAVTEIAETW
Chain of NEK4 (human) (P51957 whole entry, looked up): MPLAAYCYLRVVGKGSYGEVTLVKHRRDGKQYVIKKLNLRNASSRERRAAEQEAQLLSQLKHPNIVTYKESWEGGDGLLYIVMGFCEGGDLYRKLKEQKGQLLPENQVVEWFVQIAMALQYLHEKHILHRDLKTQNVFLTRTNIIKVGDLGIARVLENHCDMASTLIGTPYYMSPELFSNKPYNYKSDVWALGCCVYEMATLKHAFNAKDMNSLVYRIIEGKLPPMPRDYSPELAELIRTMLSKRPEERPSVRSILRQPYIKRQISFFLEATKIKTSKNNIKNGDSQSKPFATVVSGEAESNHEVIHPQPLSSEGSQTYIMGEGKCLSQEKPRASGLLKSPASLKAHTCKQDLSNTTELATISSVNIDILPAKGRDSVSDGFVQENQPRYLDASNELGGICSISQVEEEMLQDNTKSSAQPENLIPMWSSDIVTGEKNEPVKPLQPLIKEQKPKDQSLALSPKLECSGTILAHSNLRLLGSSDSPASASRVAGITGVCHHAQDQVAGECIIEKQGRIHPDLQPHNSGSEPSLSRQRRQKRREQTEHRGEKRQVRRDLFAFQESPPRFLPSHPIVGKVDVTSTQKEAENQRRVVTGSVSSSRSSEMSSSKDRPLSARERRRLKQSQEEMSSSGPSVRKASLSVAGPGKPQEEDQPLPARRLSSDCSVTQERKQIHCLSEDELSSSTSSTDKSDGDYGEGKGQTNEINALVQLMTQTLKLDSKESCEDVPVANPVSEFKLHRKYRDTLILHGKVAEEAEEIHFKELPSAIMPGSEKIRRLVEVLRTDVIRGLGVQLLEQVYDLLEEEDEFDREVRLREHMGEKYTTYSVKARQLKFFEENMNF
Chain of MAPKAPK5 (human) (Q8IW41 whole entry, looked up): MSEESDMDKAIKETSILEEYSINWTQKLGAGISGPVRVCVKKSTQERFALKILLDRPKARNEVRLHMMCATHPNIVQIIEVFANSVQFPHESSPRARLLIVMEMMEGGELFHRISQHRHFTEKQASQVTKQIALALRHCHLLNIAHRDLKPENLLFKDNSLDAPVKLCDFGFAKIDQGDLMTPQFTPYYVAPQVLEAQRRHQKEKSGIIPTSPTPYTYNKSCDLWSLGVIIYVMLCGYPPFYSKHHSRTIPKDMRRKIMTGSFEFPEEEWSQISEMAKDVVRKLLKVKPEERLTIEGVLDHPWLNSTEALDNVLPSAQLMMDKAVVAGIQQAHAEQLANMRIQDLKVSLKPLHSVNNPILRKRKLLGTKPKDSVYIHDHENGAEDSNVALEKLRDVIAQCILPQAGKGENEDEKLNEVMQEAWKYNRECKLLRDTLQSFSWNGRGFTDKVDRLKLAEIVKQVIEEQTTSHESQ
Chain of MAPKAPK2 (human) (P49137 whole entry, looked up): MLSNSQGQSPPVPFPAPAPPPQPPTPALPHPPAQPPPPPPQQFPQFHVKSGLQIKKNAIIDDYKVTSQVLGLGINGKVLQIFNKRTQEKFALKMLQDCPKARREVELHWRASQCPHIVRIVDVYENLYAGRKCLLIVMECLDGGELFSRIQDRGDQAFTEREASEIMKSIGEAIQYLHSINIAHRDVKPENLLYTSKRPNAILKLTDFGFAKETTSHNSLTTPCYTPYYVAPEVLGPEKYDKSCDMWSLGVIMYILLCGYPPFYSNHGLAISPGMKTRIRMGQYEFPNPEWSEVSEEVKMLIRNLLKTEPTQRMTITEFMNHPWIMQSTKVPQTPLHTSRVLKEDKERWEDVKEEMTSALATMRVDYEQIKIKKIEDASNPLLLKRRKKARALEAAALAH
Chain of STK17A (human) (Q9UEE5 whole entry, looked up): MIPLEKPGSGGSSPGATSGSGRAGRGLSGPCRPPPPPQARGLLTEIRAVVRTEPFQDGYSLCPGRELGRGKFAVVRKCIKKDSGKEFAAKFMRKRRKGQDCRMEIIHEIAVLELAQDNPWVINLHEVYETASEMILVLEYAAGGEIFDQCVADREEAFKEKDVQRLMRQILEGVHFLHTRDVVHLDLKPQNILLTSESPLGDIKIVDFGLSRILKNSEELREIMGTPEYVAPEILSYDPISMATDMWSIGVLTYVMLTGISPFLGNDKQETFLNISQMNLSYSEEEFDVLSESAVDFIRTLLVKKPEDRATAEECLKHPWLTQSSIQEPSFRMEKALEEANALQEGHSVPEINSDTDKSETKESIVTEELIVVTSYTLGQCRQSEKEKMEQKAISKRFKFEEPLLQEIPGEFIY

With `Cc1nc2cc3nc(-c4cccs4)cnc3cc2n1C` the residual activity [1] was 101%, the residual activity [2] was 98% and the residual activity [3] was 100%. For the same molecule, the residual activity [4] was 59.9%, the residual activity [5] was 110% and the residual activity [6] was 98.2%. It also gave a residual activity [7] of 99.8%, a residual activity [8] of 104% and a residual activity [9] of 103%. It also gave a residual activity [10] of 110%, a residual activity [11] of 86.9% and a residual activity [12] of 108%. For the same molecule, the residual activity [13] was 88.8%, the residual activity [14] was 108% and the residual activity [15] was 101%. The residual activity [16] was 104%, the residual activity [17] was 93.6% and the residual activity [18] was 103%. The residual activity [19] was 84.8%, the residual activity [20] was 66.9% and the residual activity [21] was 96.8%. For the same molecule, the residual activity [22] was 80.5%, the residual activity [23] was 99.7% and the residual activity [24] was 80.4%. It also gave a residual activity [25] of 89.1%, a residual activity [26] of 102% and a residual activity [27] of 88.5%. It also gave a residual activity [28] of 103%, a residual activity [29] of 98% and a residual activity [30] of 88.4%. For the same molecule, the residual activity [31] was 95.2%, the residual activity [32] was 68.9% and the residual activity [33] was 105%. The residual activity [34] was 108%, the residual activity [35] was 78.6% and the residual activity [36] was 101%. The residual activity [37] was 114%, the residual activity [38] was 95.2% and the residual activity [39] was 95.4%. It also gave a residual activity [40] of 99.4%, a residual activity [41] of 97.5% and a residual activity [42] of 95%.
`O=C(CCCc1ccc(-c2ccccc2F)cc1)Nc1ccc(O)cc1` gave a residual activity [1] of 99.9%, a residual activity [2] of 99.2% and a residual activity [3] of 91.4%. For the same molecule, the residual activity [4] was 96.3%, the residual activity [5] was 69.9% and the residual activity [6] was 89.1%. It also gave a residual activity [7] of 101%, a residual activity [8] of 96.1% and a residual activity [9] of 101%. For the same molecule, the residual activity [10] was 91.4%, the residual activity [11] was 83.7% and the residual activity [12] was 98.1%. The residual activity [13] was 98%, the residual activity [14] was 106% and the residual activity [15] was 89.4%. It also gave a residual activity [16] of 96.8%, a residual activity [17] of 92.6% and a residual activity [18] of 88.9%. It also gave a residual activity [19] of 104%, a residual activity [20] of 110% and a residual activity [21] of 84%. It also gave a residual activity [22] of 101%, a residual activity [23] of 98.4% and a residual activity [24] of 101%. For the same molecule, the residual activity [25] was 97.8%, the residual activity [26] was 97.7% and the residual activity [27] was 105%. The residual activity [28] was 98.2%, the residual activity [29] was 104% and the residual activity [30] was 103%. The residual activity [31] was 106%, the residual activity [32] was 111% and the residual activity [33] was 116%. The residual activity [34] was 102%, the residual activity [35] was 110% and the residual activity [36] was 96.5%. The residual activity [37] was 124%, the residual activity [38] was 103% and the residual activity [39] was 103%. For the same molecule, the residual activity [40] was 102%, the residual activity [41] was 89% and the residual activity [42] was 101%.
